We go through three compounds from ChEMBL document CHEMBL1144460, “Design, synthesis, and structural analysis of inhibitors of influenza neuraminidase containing a 2,3-disubstituted tetrahydrofuran-5-carboxylic acid core” (Bioorg Med Chem Lett, 2005).

For the test, the target named is Neuraminidase (Influenza B virus (strain B/Lee/1940), UniProt P03474). Put plainly: Inhibitory concentration of the compound was determined against neuraminidase B (B/Memphis/3/89) of Influenza virus.

Structures are written as SMILES.

Sequence of Neuraminidase (P03474 whole entry): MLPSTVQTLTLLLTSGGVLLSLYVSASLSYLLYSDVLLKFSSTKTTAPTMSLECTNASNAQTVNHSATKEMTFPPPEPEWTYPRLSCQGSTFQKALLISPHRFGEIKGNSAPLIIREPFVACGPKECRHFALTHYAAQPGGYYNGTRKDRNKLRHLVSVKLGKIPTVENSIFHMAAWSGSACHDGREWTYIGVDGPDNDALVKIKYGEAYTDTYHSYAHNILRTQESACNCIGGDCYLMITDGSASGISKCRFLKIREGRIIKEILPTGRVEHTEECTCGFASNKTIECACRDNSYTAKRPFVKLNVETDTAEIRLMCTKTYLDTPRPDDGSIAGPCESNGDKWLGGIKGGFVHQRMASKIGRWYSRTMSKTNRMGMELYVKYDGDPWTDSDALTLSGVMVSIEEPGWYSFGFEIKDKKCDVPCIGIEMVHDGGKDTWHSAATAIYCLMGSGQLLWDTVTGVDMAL

Take `CC(=O)N[C@@H](CC(C)C)[C@@H]1O[C@@H](C(=O)O)C[C@H]1c1c[nH]cn1`: inhibition was half-maximal at 1000 nM (IC50).
Consider `COC(=O)[C@@H]1C[C@H](C(=O)O)O[C@H]1[C@H](CC(C)C)NC(C)=O`, for which half-maximal inhibition (IC50) was put at 960 nM.
The result for `COC(=O)[C@@H]1C[C@H](C(=O)O)N[C@H]1[C@H](CC(C)C)NC(C)=O` reads 56 nM.

What is called IC50 is the midpoint of a concentration-inhibition curve. The low end stands for greater potency in that assay, the high end for weaker potency in that assay.
